Data taken from the METLIN SMRT retention time set (Domingo-Almenara et al. 2019).

Assay: gradient 5% acetonitrile 3 min, to 50% in 2 min, to 85% in 15 min, held 3 min, 100 µL/min
Details: column: Zorbax Extend-C18 2.1 x 50 mm; eluents: water / acetonitrile, 0.1% formic acid
Procedure, shortened: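 Over 3 months, pure standards in mixtures of ~100 molecules were run by HPLC coupled to a quadrupole time-of-flight mass spectrometer in positive and negative ionization mode. The column was a Zorbax Extend-C18 (2.1 × 50 mm, 1.8 μm) at 100 μL/min, eluted with water and acetonitrile each holding 0.1% formic acid, with 40 μL dead and 900 μL dwell volumes. Retention time was determined from adduct peaks chosen by software and checked manually.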

Row | SMILES | RP-LC retention time [s]
1 | Cc1ccc(-c2noc(Cn3ncn4nc(-c5ccc(F)cc5)cc4c3=O)n2)cc1 | 817
2 | COCCCNC(=O)C1CCN(c2cncnc2N2CCCCC2)CC1 | 606
3 | Cc1ccc(CN2C(=O)COc3ccc(C(=O)NCc4ccc5c(c4)OCO5)cc32)cc1 | 921
4 | COc1cccc(C2Cn3nnc(-c4nc(-c5ccc(Br)cc5)no4)c3CO2)c1 (stereo unspecified) | 1240
5 | CCc1ccc(-c2noc(Cn3c(=O)n(Cc4cccc(OC)c4)c(=O)c4sccc43)n2)cc1 | 1170
6 | Cc1nn(C)c2c(=O)n(CC(=O)NCc3ccc(Br)cc3)ccc12 | 745
7 | Cn1c(N2CCC(C(=O)N3CCN(c4cccc(C(F)(F)F)c4)CC3)CC2)cc(=O)n(C)c1=O | 814
8 | Cc1c(S(=O)(=O)NCc2ccc3c(c2)CCN3C(=O)C(C)C)cnn1C(F)F | 801
9 | CCc1noc(NC(C)=O)c1-c1ccc(C)c(S(=O)(=O)Nc2ccc(OC)c(OC)c2)c1 | 840
10 | O=C(c1cnccn1)N1CC(c2nc(CCOCC3CC3)no2)C1 | 691
11 | O=C(CN1CC=C(c2cnn(-c3ccccc3)c2)CC1)NC1CCCCCC1 | 702
12 | CCS(=O)(=O)c1nc2ccc(NS(=O)(=O)c3ccc4c(c3)OCCO4)cc2s1 | 826
13 | Cc1ccc(Nc2nc(-c3ccc4c(c3)OCO4)cs2)nc1 | 863
14 | COCCNC(=O)Cn1c(C(F)(F)F)nc2cc3c(cc21)OCCO3 | 641
15 | COc1cccc(-c2noc(COC(=O)C3=CN(C)S(=O)(=O)N=C3C)n2)c1 | 926
16 | COc1ccc(OC)c(NS(=O)(=O)c2ccc3c(c2)-c2oncc2CO3)c1 | 889
17 | CCOc1ccccc1NS(=O)(=O)c1cc(-c2nc(C(C)(C)C)cs2)cs1 | 1310
18 | CCCNS(=O)(=O)c1cc2n(c1)CCCN(C(C)C)C2=O | 678
19 | C=CCN1CCN(C(=O)C2CCN(c3nc(NC(C)=O)c(C(=O)N4CCCC4)s3)CC2)CC1 | 579
20 | CCOC(=O)C1CCCN(C(=O)C2CCN(S(=O)(=O)c3ccc4c(c3)sc(=O)n4C)CC2)C1 (stereo unspecified) | 825
21 | Cc1ccc(CN2CC(Cn3c(C)cnc3-c3ccncc3)C2)o1 | 611
22 | COC(=O)CC(=O)Nc1cc2c(cc1N1CCOCC1)n(C)c(=O)n2C | 597
23 | CC(C)CN1CCC(N2CC(COc3ccccc3)C3(CCOCC3)C2)CC1 (stereo unspecified) | 574
24 | CCC(C)N(CCNC(=O)Cc1noc2ccc(C)cc12)Cc1ccco1 (stereo unspecified) | 682
25 | COc1nccnc1N1CCC(N(C)C(=O)c2ccc(C)s2)C1 (stereo unspecified) | 785
26 | Cc1ccc(C2Cn3nnc(C(=O)N4CCN(C(=O)c5ccoc5)CC4)c3CO2)cc1 (stereo unspecified) | 815
27 | Cc1cccc(CNC(=O)c2c(C)sc3ccn(C)c(=O)c23)c1 | 787
28 | O=C(NCCc1ccc(Cl)cc1)C(=O)c1ccc[nH]1 | 878

Second part, the compound after the results:

Row | RP-LC retention time [s] | SMILES
29 | 905 | COCCN1C(=O)c2ccccc2C(C(=O)NCc2ccccc2Cl)C12CCCC2 (stereo unspecified)
30 | 860 | Cc1ccc(NC(=O)C(C)C2CCN(C(=O)Nc3ccccc3)CC2)cc1 (stereo unspecified)
31 | 914 | COc1cccc(-c2cn3ccn(-c4ccc5c(c4)CCC5)c(=O)c3n2)c1
32 | 715 | O=C(NCCO)C(=O)NCC1(c2ccccc2)CCCC1
33 | 720 | O=C(Nc1c(-c2ccccc2)nc2ccccn12)c1ccc2ccccc2c1
34 | 600 | O=C(Cc1csc(NC(=O)C2CCCC2)n1)Nc1nc(-c2cccnc2)cs1
35 | 853 | Cn1nc(CNC(=O)COc2ccc(Cl)cc2)c2ccccc21
36 | 1030 | CCNS(=O)(=O)c1cccnc1Nc1cccc(Cl)c1
37 | 917 | Cc1cc(=O)n(Cc2ccc(F)cc2)c(N2CCSCC2)n1
38 | 807 | CCn1cnc2ccc(-c3noc(COc4ccccc4C)n3)cc21
39 | 1030 | Cc1ccc(NC(=O)Cn2c(C)nc3c(sc4nc(-c5ccccc5)ccc43)c2=O)cc1Cl
40 | 842 | Cn1c(=O)c2cc(C(=O)Nc3ccc4c(c3)OCCO4)cnc2n(-c2ccccc2)c1=O
41 | 1140 | C=CCn1c(=O)c2ccccc2n(Cc2nc(-c3ccc(F)c(Cl)c3)no2)c1=O
42 | 979 | Cc1ccc(-c2csc(NC(=O)CCCOc3ccc(Cl)cc3)n2)cc1
43 | 570 | CCCNc1cc(N2CCC(CCC(=O)N3CCN(c4ccccn4)CC3)CC2)ncn1
44 | 863 | CCS(=O)(=O)Nc1ccc(C2(C(=O)NCc3ccc(C)cc3)CCC2)cc1
45 | 840 | CCc1nc2cc(N3CCC(C(=O)NCc4ccccc4F)CC3)cnc2nc1CC
46 | 537 | Cc1nn(C)cc1C(=O)Nc1nc2ccccc2[nH]1
47 | 639 | O=C(NCCc1c[nH]c2ccc(Cl)cc12)c1ccncc1

Row | RP-LC retention time [s] | SMILES
48 | 730 | Cc1ccccc1S(=O)(=O)N1CCC2(CC1)NCCN=C2NCc1ccc(F)cc1
49 | 869 | COC(=O)c1cc(S(=O)(=O)N2CCCC2C(=O)Nc2ccc(C)cc2)cn1C (stereo unspecified)
50 | 627 | Cc1n[nH]c(C)c1CNC(=O)C1CCN(C(=O)c2ncn3c2COC(c2ccc(F)cc2)C3)CC1 (stereo unspecified)
51 | 700 | O=C(CN1CCC2(CC1)N=C(c1ccc(Br)cc1)C(=O)N2)Nc1ccc(F)cc1
52 | 614 | COc1cccc(NC(=O)N2CCN(c3nc4ccccc4n3Cc3ccccc3)CC2)c1
53 | 921 | CC1CCCCN1S(=O)(=O)c1ccc2c(c1)CCC(=O)N2CC(=O)NC1CCCCC1 (stereo unspecified)
54 | 715 | COc1cc(-c2nc3ncccn3c2Nc2cccc(Cl)c2C)ccc1O
55 | 734 | O=C(CCn1cnc2cc(-c3noc(CCc4c[nH]c5ccccc45)n3)ccc21)N1CCCC1
56 | 777 | O=C(c1cncc(Br)c1)N1CCCC(c2nnc(-c3ccccc3)o2)C1 (stereo unspecified)
57 | 861 | O=C(NC1CCCCC1)c1nc(Nc2ccccc2)c2ccccc2n1
58 | 917 | CC1CCC(NC(=O)c2nnc(-c3ccc(S(=O)(=O)N4CCOCC4)cc3)o2)CC1 (stereo unspecified)
59 | 792 | Cc1ccc(C(=O)N2CCC3(C2)C(=O)N(C)c2ccccc23)cc1 (stereo unspecified)
60 | 768 | O=C(COc1ccccc1)N1CC(F)(F)C[C@H]1c1nnc(C2CC2)o1
61 | 654 | COc1cccc(CNC(=O)N2CCN(Cc3nc4ccccc4o3)CC2)c1
62 | 916 | Cc1nn2c(CNS(=O)(=O)c3ccc(C)c(C)c3)c(-c3ccccc3)nc2s1
63 | 735 | Cc1cc(C)cc(C(=O)N2CCN(c3nc(C)cc(N4CCCC4)n3)CC2)c1
64 | 658 | COC(=O)Cn1c2ccc(F)cc2c2nc3ccccc3nc21
65 | 907 | CC1CCN(S(=O)(=O)c2ccc3c(c2)CCCC(=O)N3CC(=O)NCc2ccccc2)CC1
66 | 607 | O=C(NCc1ccc(F)cc1)C1CCN(c2cc(N3CCOCC3)ncn2)CC1
